Test results from BigSolDB 2.1.

Work on `O=c1cc(CO)occ1O` yielded a solubility (mole fraction) (in THF, 278.15 K) of 0.00384, a solubility (mole fraction) (in THF, 283.15 K) of 0.00435 and a solubility (mole fraction) (in THF, 288.15 K) of 0.00541. For the same compound, the solubility (mole fraction) (in THF, 293.15 K) was 0.00663, the solubility (mole fraction) (in THF, 298.15 K) was 0.00799 and the solubility (mole fraction) (in THF, 303.15 K) was 0.00961. For the same compound, the solubility (mole fraction) (in THF, 308.15 K) was 0.0116, the solubility (mole fraction) (in THF, 313.15 K) was 0.0134 and the solubility (mole fraction) (in THF, 318.15 K) was 0.017. For the same compound, the solubility (mole fraction) (in THF, 323.15 K) was 0.0199, the solubility (mole fraction) (in acetonitrile, 278.15 K) was 0.00062 and the solubility (mole fraction) (in acetonitrile, 283.15 K) was 0.00078. It also gave a solubility (mole fraction) (in acetonitrile, 288.15 K) of 0.00097, a solubility (mole fraction) (in acetonitrile, 293.15 K) of 0.00122 and a solubility (mole fraction) (in acetonitrile, 298.15 K) of 0.00151. The solubility (mole fraction) (in acetonitrile, 303.15 K) was 0.00184, the solubility (mole fraction) (in acetonitrile, 308.15 K) was 0.00226 and the solubility (mole fraction) (in acetonitrile, 313.15 K) was 0.00276. It also gave a solubility (mole fraction) (in acetonitrile, 318.15 K) of 0.00341, a solubility (mole fraction) (in acetonitrile, 323.15 K) of 0.00424 and a solubility (mole fraction) (in isopropanol, 278.15 K) of 0.00213. It also gave a solubility (mole fraction) (in isopropanol, 283.15 K) of 0.00266, a solubility (mole fraction) (in isopropanol, 288.15 K) of 0.0032 and a solubility (mole fraction) (in isopropanol, 293.15 K) of 0.00392. For the same compound, the solubility (mole fraction) (in isopropanol, 298.15 K) was 0.00478, the solubility (mole fraction) (in isopropanol, 303.15 K) was 0.00557 and the solubility (mole fraction) (in isopropanol, 308.15 K) was 0.00667. The solubility (mole fraction) (in isopropanol, 313.15 K) was 0.00814, the solubility (mole fraction) (in isopropanol, 318.15 K) was 0.00974 and the solubility (mole fraction) (in isopropanol, 323.15 K) was 0.0116. For the same compound, the solubility (mole fraction) (in methyl acetate, 278.15 K) was 0.00085, the solubility (mole fraction) (in methyl acetate, 283.15 K) was 0.0011 and the solubility (mole fraction) (in methyl acetate, 288.15 K) was 0.00141. For the same compound, the solubility (mole fraction) (in methyl acetate, 293.15 K) was 0.00172, the solubility (mole fraction) (in methyl acetate, 298.15 K) was 0.00213 and the solubility (mole fraction) (in methyl acetate, 303.15 K) was 0.0026. The solubility (mole fraction) (in methyl acetate, 308.15 K) was 0.00317, the solubility (mole fraction) (in methyl acetate, 313.15 K) was 0.00385 and the solubility (mole fraction) (in methyl acetate, 318.15 K) was 0.00467. It also gave a solubility (mole fraction) (in methyl acetate, 323.15 K) of 0.00556, a solubility (mole fraction) (in n-butanol, 278.15 K) of 0.00193 and a solubility (mole fraction) (in n-butanol, 283.15 K) of 0.00242. For the same compound, the solubility (mole fraction) (in n-butanol, 288.15 K) was 0.00289, the solubility (mole fraction) (in n-butanol, 293.15 K) was 0.00364 and the solubility (mole fraction) (in n-butanol, 298.15 K) was 0.00452. The solubility (mole fraction) (in n-butanol, 303.15 K) was 0.00538, the solubility (mole fraction) (in n-butanol, 308.15 K) was 0.00646 and the solubility (mole fraction) (in n-butanol, 313.15 K) was 0.00779. For the same compound, the solubility (mole fraction) (in n-butanol, 318.15 K) was 0.00935, the solubility (mole fraction) (in n-butanol, 323.15 K) was 0.011 and the solubility (mole fraction) (in n-pentanol, 278.15 K) was 0.00185. For the same compound, the solubility (mole fraction) (in n-pentanol, 283.15 K) was 0.00222, the solubility (mole fraction) (in n-pentanol, 288.15 K) was 0.0028 and the solubility (mole fraction) (in n-pentanol, 293.15 K) was 0.00392. It also gave a solubility (mole fraction) (in n-pentanol, 298.15 K) of 0.00417, a solubility (mole fraction) (in n-pentanol, 303.15 K) of 0.00506 and a solubility (mole fraction) (in n-pentanol, 308.15 K) of 0.00611. It also gave a solubility (mole fraction) (in n-pentanol, 313.15 K) of 0.00733, a solubility (mole fraction) (in n-pentanol, 318.15 K) of 0.00882 and a solubility (mole fraction) (in n-pentanol, 323.15 K) of 0.0106. The solubility (mole fraction) (in sec-butanol, 278.15 K) was 0.00202, the solubility (mole fraction) (in sec-butanol, 283.15 K) was 0.00245 and the solubility (mole fraction) (in sec-butanol, 288.15 K) was 0.00315. It also gave a solubility (mole fraction) (in sec-butanol, 293.15 K) of 0.00387, a solubility (mole fraction) (in sec-butanol, 298.15 K) of 0.00465 and a solubility (mole fraction) (in sec-butanol, 303.15 K) of 0.0057. It also gave a solubility (mole fraction) (in sec-butanol, 308.15 K) of 0.0069, a solubility (mole fraction) (in sec-butanol, 313.15 K) of 0.00817 and a solubility (mole fraction) (in sec-butanol, 318.15 K) of 0.00981. It also gave a solubility (mole fraction) (in sec-butanol, 323.15 K) of 0.0117.
